Measurements from patent US20180185308A1, “COMPOSITIONS AND METHODS FOR TREATING INFLAMMATORY DISEASE OR CONDITIONS” (Matinas BioPharma Nanotechnologies, Inc., priority 2015, published 2018).

Assays:
[1] = tested on: carrageenan-induced paw inflammation; experiment: Rat carrageenan-induced paw inflammation (paw edema) assay; format: in vivo, Male Sprague Dawley rats; settings: oral, one hour prior to carrageenan, paw weight difference four hours after carrageenan
Procedure: The in vivo efficacy if NSAID cochleates was tested in a rat carrageenan-induced paw inflammation assay.
Two types of ibuprofen-containing cochleates were prepared, crystal cochleates and geode cochleates. The cochleates were prepared with using soy phosphatidylserine as a negative phospholipid. To prepare the ibuprofen geode cochleate, the soy phosphatidylserine was combined with castor oil and ibuprofen and mixed to form a stable emulsion comprising a mixture of liposomes and lipid monolayers comprising the phosphatidylserine surrounding a hydrophobic domain (castor oil), with the ibuprofen dispersed within the castor oil. […] Crystal and geode cochleates containing 50, 10, 2, 0.4, or 0.1 mg/kg of ibuprofen were prepared. Male Sprague Dawley rats were treated orally (one hour prior to right hind footpad injection of carrageenan) with vehicle, a commercial preparation of ibuprofen or ibuprofen formulated in either crystal or geode cochleates and were evaluated for effects of treatment on inflammatory edema. Animals were sacrificed five hours after dosing with test articles (four hours after carrageenan injection). Efficacy evaluation was based on weight difference due to inflammation-induced swelling in injected (right) vs. uninjected (left) paws. In addition, gastric mucosa were evaluated for differences in incidence and severity of mucosal congestion and erosions.

gastric mucosa = experiment: Evaluation of gastric mucosa for lesions/erosions in rats after oral dosing; format: in vivo, Male Sprague Dawley rats
Procedure: Male Sprague Dawley rats were treated orally (one hour prior to right hind footpad injection of carrageenan) with vehicle, a commercial preparation of ibuprofen or ibuprofen formulated in either crystal or geode cochleates and were evaluated for effects of treatment on inflammatory edema. Animals were sacrificed five hours after dosing with test articles (four hours after carrageenan injection). Efficacy evaluation was based on weight difference due to inflammation-induced swelling in injected (right) vs. uninjected (left) paws. In addition, gastric mucosa were evaluated for differences in incidence and severity of mucosal congestion and erosions.

[2] = Solubility of ibuprofen in oils; format: physicochemical
[3] = rats, ibuprofen at 50 mg/kg oral

## CC(C)Cc1ccc(C(C)C(=O)O)cc1 (stereo not drawn) [Commercial ibuprofen, ibuprofen]
[1]
  ED50: 30 mg/kg
Gastric mucosa; 10 mg/kg, oral
  rats with gastric lesions (incidence): 1 of 10
Gastric mucosa; 10 mg/kg, oral, listed as commercial preparation of ibuprofen
  rats with gastric lesions (incidence): Some rats
Gastric mucosa; 50 mg/kg, oral
  number of gastric lesions and total stomach lesion length (in words): significantly increased numbers of gastric lesions and increased total stomach lesion length
Gastric mucosa; [3]
  Average Size of Lesion: 7.2 ± 1.9
  Number of Lesions per Animal: 4.1 ± 0.8
Gastric mucosa; rats, ibuprofen at 50 mg/kg oral, five hours after dosing, groups of 10
  Number of Animals with Lesions: 9
Gastric mucosa; single-dose 50 mg/kg (highest dose), oral
  rats with gastric lesions (incidence): 9 of 10
[2]
  solubility in castor oil compared with other oils: substantially more soluble in castor oil than other oils
